Measurements published in ChEMBL document CHEMBL2401728, “An unexpected Dimroth rearrangement leading to annelated thieno[3,2-d][1,2,3]triazolo[1,5-a]pyrimidines with potent antitumor activity” (Eur J Med Chem, 2013).

Legend:
[1] = Cytotoxicity against human renal cancer cells assessed as cellular growth at 10 uM after 48 hrs by SRB assay relative to control; format: functional, Cancer cell lines
[2] = Cytotoxicity against human ovarian cancer cells assessed as cellular growth at 10 uM after 48 hrs by SRB assay relative to control; format: functional, Cancer cell lines
[3] = Cytotoxicity against human prostate cancer cells assessed as cellular growth at 10 uM after 48 hrs by SRB assay relative to control; format: functional, Cancer cell lines
[4] = Cytotoxicity against human non-small cell lung cancer cells assessed as cellular growth at 10 uM after 48 hrs by SRB assay relative to control; format: functional, Cancer cell lines
[5] = Cytotoxicity against human melanoma cells assessed as cellular growth at 10 uM after 48 hrs by SRB assay relative to control; format: functional, Melanoma cell
[6] = Cytotoxicity against human leukemia cells assessed as cellular growth at 10 uM after 48 hrs by SRB assay relative to control; format: functional, Leukemia cell
[7] = Cytotoxicity against human colon cancer cells assessed as cellular growth at 10 uM after 48 hrs by SRB assay relative to control; format: functional, Cancer cell lines
[8] = Cytotoxicity against human CNS cancer cells assessed as cellular growth at 10 uM after 48 hrs by SRB assay relative to control; format: functional, Cancer cell lines
[9] = Cytotoxicity against human breast cancer cells assessed as cellular growth at 10 uM after 48 hrs by SRB assay relative to control; format: functional, Cancer cell lines
MCF7 = experiment: Cytotoxicity against human MCF7 cells after 48 hrs by SRB assay; format: functional; conditions: MCF7, 48 h
MDA-MB-435 = experiment: Cytotoxicity against human MDA-MB-435 cells after 48 hrs by SRB assay; format: functional; conditions: MDA-MB-435, 48 h, read-out: pLC50 (the source's name) (converted)
SNB-19 = experiment: Cytotoxicity against human SNB19 cells after 48 hrs by SRB assay; format: functional; conditions: SNB-19, 48 h, read-out: pLC50 (the source's name) (converted)
HCT-15 = experiment: Cytotoxicity against human HCT15 cells after 48 hrs by SRB assay; format: functional; conditions: HCT-15, 48 h, read-out: pTGI (converted)
HT-29 = experiment: Cytotoxicity against human HT-29 cells after 48 hrs by SRB assay; format: functional; conditions: HT-29, 48 h, read-out: pLC50 (the source's name) (converted)
HCC 2998 = experiment: Cytotoxicity against human HCC2998 cells after 48 hrs by SRB assay; format: functional; conditions: HCC 2998, 48 h, read-out: pLC50 (the source's name) (converted)
A549 = experiment: Cytotoxicity against human A549 cells after 48 hrs by SRB assay; format: functional; conditions: A549, 48 h, read-out: pLC50 (converted)
[10] = Cytotoxicity against human EKVX cells after 48 hrs by SRB assay; format: functional; conditions: read-out: pLC50 (the source's name) (converted)
RPMI-8226 = experiment: Cytotoxicity against human RPMI8226 cells after 48 hrs by SRB assay; format: functional; conditions: RPMI-8226, 48 h, read-out: pLC50 (converted)
K562 = experiment: Cytotoxicity against human K562 cells after 48 hrs by SRB assay; format: functional; conditions: K562, 48 h, read-out: pLC50 (the source's name) (converted)
MOLT-4 = experiment: Cytotoxicity against human MOLT4 cells after 48 hrs by SRB assay; format: functional; conditions: MOLT-4, 48 h, read-out: pLC50 (the source's name) (converted)
CCRF-CEM = experiment: Cytotoxicity against human CCRF-CEM cells after 48 hrs by SRB assay; format: functional

Q: Which results are given for `CN1CCN(CCCn2c(=O)c3sc4ncccc4c3n3nnc(-c4ccccc4)c23)CC1`?
A: Activity [1]: -14%; Activity [2]: 7%; Activity [3]: 39%; Activity [4]: 14%; Activity [5]: -78%; Activity [6]: -22%; Activity [7]: -37%; Activity [8]: -43%; Activity [9]: -23%

Q: Which Activity [1] does the source give for `O=C(CCCn1c(=O)c2sc3ncccc3c2n2nnc(-c3ccccc3)c12)NCCc1c[nH]cn1` here?
A: 79%

Q: What about the Activity [2] of the same compound?
A: 59%

Q: What about the Activity [3] of the same compound?
A: 46%

Q: And the Activity [4]?
A: 88%

Q: And the Activity [5]?
A: 71%

Q: And the Activity [6]?
A: 61%

Q: What about the Activity [7] of the same compound?
A: 49%

Q: And the Activity [8]?
A: 60%

Q: What about the Activity [9] of the same compound?
A: 79%

Q: What about the LC50 (MCF7; read-out: pLC50 (converted)) of the same compound?
A: > 100 µM

Q: And the TGI (MCF7; read-out: pTGI (converted))?
A: 100 µM

Q: And the CC50 (MDA-MB-435)?
A: > 100 µM

Q: And the CC50 (SNB-19)?
A: > 100 µM

Q: And the TGI (HCT-15)?
A: 100 µM

Q: What about the CC50 (HT-29) of the same compound?
A: > 100 µM

Q: And the CC50 (HCC 2998)?
A: > 100 µM

Q: What about the CC50 (A549) of the same compound?
A: > 100 µM

Q: And the CC50 [10]?
A: > 100 µM

Q: And the CC50 (RPMI-8226)?
A: > 100 µM

Q: And the CC50 (K562)?
A: > 100 µM

Q: What about the CC50 (MOLT-4) of the same compound?
A: > 100 µM

Q: And the CC50 (CCRF-CEM; read-out: pLC50 (the source's name) (converted))?
A: > 100 µM

Q: Which Activity [1] does the source give for `O=C(CCCn1c(=O)c2sc3ccccc3c2n2nnc(-c3ccccc3)c12)NCCc1c[nH]cn1` here?
A: -34%

Q: What about the Activity [2] of the same compound?
A: -16%

Q: What about the Activity [3] of the same compound?
A: -41%

Q: What about the Activity [4] of the same compound?
A: -26%

Q: What about the Activity [5] of the same compound?
A: -57%

Q: What about the Activity [6] of the same compound?
A: 71%

Q: What about the Activity [7] of the same compound?
A: -49%

Q: And the Activity [8]?
A: -18%

Q: And the Activity [9]?
A: -5%

Q: What about the TGI (CCRF-CEM; read-out: pTGI (converted)) of the same compound?
A: 100 µM
